Reference: US5270457A, “Cardiac steriod glycosides” (University of Manitoba, priority 1992, dated 1993)
Structures can show the parent of a compound that is named as a salt.

Target: Na/K-ATPase
Experiment: 3H-ouabain radioligand binding assay (RBA)
Details: for IC50: 3H-ouabain radioligand binding assay (RBA)
Source text: The potency of steroids to displace the labelled cardiac glycoside (i.e. ouabain) in the assay parallel their biological activity, that is their cardiac glycoside-like activity, in their ability to inhibit Na/K-ATPase and elicit characteristic cellular response.

SMILES	IC50	IC50 (unit printed 'nm')	potency compared with Example 1 and Example 4 (comparison of IC50 values, in words)
C[C@@H]1O[C@@H](O[C@H]2CC[C@@]3(C)[C@H](CC[C@@H]4[C@@H]3CC[C@]3(C)[C@@H](CN)CC[C@]43O)C2)[C@H](O)[C@H](O)[C@H]1O [Example 1, 14-Hydroxy-3β-(α-L-rhamnopyranosyl)oxy-20-amino-21-nor-5β14β-pregnane hydrochloride]	60 nM	60 nM	–
C[C@@H]1O[C@@H](O[C@H]2CC[C@@]3(C)[C@H](CC[C@@H]4[C@@H]3CC[C@]3(C)[C@@H](C[N+](=O)[O-])CC[C@]43O)C2)[C@H](O)[C@H](O)[C@H]1O [Example 2, 14-Hydroxy-3β-(α-L-rhamnopyranosyl)oxy-20-nitro-21-nor-5β,14β-pregnane]	11 nM	11 nM	significantly greater than exhibited by the corresponding amino derivative (Example 1) and tridigitoxosyl derivative (Example 4)
CC1OC(OC2C(O)CC(OC3C(O)CC(OC4CCC5(C)C(CCC6C5CCC5(C)C(CN)CCC65O)C4)OC3C)OC2C)CC(O)C1O [Example 3, 14-Hydroxy-3β-(tris-β-D-digitoxosyl)oxy-20-amine-21-nor-5β,14β-pregnane]	400 nM	–	–
CC1OC(OC2C(O)CC(OC3C(O)CC(OC4CCC5(C)C(CCC6C5CCC5(C)C(C[N+](=O)[O-])CCC65O)C4)OC3C)OC2C)CC(O)C1O [Example 4, 14-Hydroxy-3 β-(tris-β-D-digitoxosyl)oxy-20-nitro-21-nor-5β,14β-pregnane]	60 nM	–	–
